# Assay results as given in patent US8580918B2, “Peptidic GLP-2 agonists” (Ferring B.V., priority 2009, dated 2013).
# Where a SMILES comes first, the peptide text is derived from it. [ ]: non-standard residue; d: D form. d2Thi = N[C@H](Cc1cccs1)C(=O)O; Nle = CCCC[C@H](N)C(=O)O
# Experiment: Pharmacokinetics in rats after intravenous bolus injection (systemic clearance)
# Type: in vivo
# Details: rat, plasma, 0.1 mg FB/kg, adult male Sprague-Dawley rats, i.v. bolus, dose 0.10 mg FB/kg, read-out: CL (ml/kg/min) Average
# Outline: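 Systemic clearance from noncompartmental analysis as dose per kg over trapezoidal AUC extrapolated to infinity, mean and SD across animals. Plasma (K2EDTA) levels by LC/MS/MS after single IV jugular-vein bolus, 0.1-1.0 mg/kg, in 3-4 cannulated male Sprague-Dawley rats.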
row,clearance [mL/kg/min],Structure (SMILES)
1,0.2,"CCCC[C@H](NC(=O)[C@H](CCC(=O)O)NC(=O)[C@H](CC(=O)O)NC(=O)[C@H](CO)NC(=O)[C@H](Cc1ccccc1)NC(=O)[C@H](CO)NC(=O)CNC(=O)[C@H](CC(=O)O)NC(=O)CNC(=O)[C@@H](N)Cc1cnc[nH]1)C(=O)N[C@H](Cc1ccccc1)C(=O)N[C@H](C(=O)N[C@H](C(=O)N[C@@H](CC(C)C)C(=O)N[C@@H](CC(=O)O)C(=O)N[C@@H](CC(C)C)C(=O)N[C@@H](CC(C)C)C(=O)N[C@@H](C)C(=O)N[C@@H](C)C(=O)N[C@@H](CCCNC(=N)N)C(=O)N[C@@H](CC(=O)O)C(=O)N[C@@H](Cc1ccccc1)C(=O)N[C@H](C(=O)N[C@@H](CC(N)=O)C(=O)N[C@@H](Cc1c[nH]c2ccccc12)C(=O)N[C@@H](CC(C)C)C(=O)N[C@H](C(=O)N[C@@H](CCC(N)=O)C(=O)N[C@H](C(=O)N[C@@H](CCCCN)C(=O)N[C@H](C(=O)N[C@H](C(=O)N[C@@H](CC(=O)O)C(N)=O)[C@@H](C)O)[C@@H](C)CC)[C@@H](C)O)[C@@H](C)CC)[C@@H](C)CC)[C@@H](C)CC)[C@@H](C)O [Compound 51, [Gly2,Nle10,D-Phe11,Leu16] hGLP-2(1-33)-NH2] (H-HGDGSFSDE[Nle][dF]TILDLLAARDFINWLIQTKITD-NH2)"

# Same assay, conditions: rat, plasma, 0.2 mg FB/kg, adult male Sprague-Dawley rats, i.v. bolus, dose 0.20 mg FB/kg, read-out: CL (ml/kg/min) Average
row,Structure (SMILES),clearance [mL/kg/min]
1,"CCCC[C@H](NC(=O)[C@H](CCC(=O)O)NC(=O)[C@H](CC(=O)O)NC(=O)[C@H](CO)NC(=O)[C@H](Cc1ccccc1)NC(=O)[C@H](CO)NC(=O)CNC(=O)[C@H](CC(=O)O)NC(=O)CNC(=O)[C@@H](N)Cc1c[nH]cn1)C(=O)N[C@H](Cc1cccs1)C(=O)N[C@H](C(=O)N[C@H](C(=O)N[C@@H](CC(C)C)C(=O)N[C@@H](CC(=O)O)C(=O)N[C@@H](CC(C)C)C(=O)N[C@@H](CC(C)C)C(=O)N[C@@H](C)C(=O)N[C@@H](C)C(=O)N[C@@H](CCCNC(=N)N)C(=O)N[C@@H](CC(=O)O)C(=O)N[C@@H](Cc1ccccc1)C(=O)N[C@H](C(=O)N[C@@H](CC(N)=O)C(=O)N[C@@H](Cc1c[nH]c2ccccc12)C(=O)N[C@@H](CC(C)C)C(=O)N[C@H](C(=O)N[C@@H](CCC(N)=O)C(=O)N[C@H](C(=O)N[C@@H](CCCCN)C(N)=O)[C@@H](C)O)[C@@H](C)CC)[C@@H](C)CC)[C@@H](C)CC)[C@@H](C)O [Compound 45, [Gly2,Nle10,D-Thi11,Leu16] hGLP-2 (1-30)-NH2] (H-HGDGSFSDE[Nle][d2Thi]TILDLLAARDFINWLIQTK-NH2)",0.33
2,"CCCC[C@H](NC(=O)[C@H](CCC(=O)O)NC(=O)[C@H](CC(=O)O)NC(=O)[C@H](CO)NC(=O)[C@H](Cc1ccccc1)NC(=O)[C@H](CO)NC(=O)CNC(=O)[C@H](CC(=O)O)NC(=O)CNC(=O)[C@@H](N)Cc1cnc[nH]1)C(=O)N[C@H](Cc1cccs1)C(=O)N[C@H](C(=O)N[C@H](C(=O)N[C@@H](CC(C)C)C(=O)N[C@@H](CC(=O)O)C(=O)N[C@@H](Cc1ccccc1)C(=O)N[C@@H](CC(C)C)C(=O)N[C@@H](C)C(=O)N[C@@H](C)C(=O)N[C@@H](CCCNC(=N)N)C(=O)N[C@@H](CC(=O)O)C(=O)N[C@@H](Cc1ccccc1)C(=O)N[C@H](C(=O)N[C@@H](CC(N)=O)C(=O)N[C@@H](Cc1c[nH]c2ccccc12)C(=O)N[C@@H](CC(C)C)C(=O)N[C@H](C(=O)N[C@@H](CCC(N)=O)C(=O)N[C@H](C(=O)N[C@@H](CCCCN)C(N)=O)[C@@H](C)O)[C@@H](C)CC)[C@@H](C)CC)[C@@H](C)CC)[C@@H](C)O [Compound 46, [Gly2,Nle10,D-Thi11,Phe16] hGLP-2 (1-30)-NH2] (H-HGDGSFSDE[Nle][d2Thi]TILDFLAARDFINWLIQTK-NH2)",0.26
3,"CCCC[C@H](NC(=O)[C@H](CCC(=O)O)NC(=O)[C@H](CC(=O)O)NC(=O)[C@H](CO)NC(=O)[C@H](Cc1ccccc1)NC(=O)[C@H](CO)NC(=O)CNC(=O)[C@H](CC(=O)O)NC(=O)CNC(=O)[C@@H](N)Cc1c[nH]cn1)C(=O)N[C@H](Cc1ccccc1)C(=O)N[C@H](C(=O)N[C@H](C(=O)N[C@@H](CC(C)C)C(=O)N[C@@H](CC(=O)O)C(=O)N[C@@H](Cc1ccccc1)C(=O)N[C@@H](CC(C)C)C(=O)N[C@@H](C)C(=O)N[C@@H](C)C(=O)N[C@@H](CCCNC(=N)N)C(=O)N[C@@H](CC(=O)O)C(=O)N[C@@H](Cc1ccccc1)C(=O)N[C@H](C(=O)N[C@@H](CC(N)=O)C(=O)N[C@@H](Cc1c[nH]c2ccccc12)C(=O)N[C@@H](CC(C)C)C(=O)N[C@H](C(=O)N[C@@H](CCC(N)=O)C(=O)N[C@H](C(=O)N[C@@H](CCCCN)C(N)=O)[C@@H](C)O)[C@@H](C)CC)[C@@H](C)CC)[C@@H](C)CC)[C@@H](C)O [Compound 47, [Gly2,Nle10,D-Phe11,Phe16] hGLP-2 (1-30)-NH2] (H-HGDGSFSDE[Nle][dF]TILDFLAARDFINWLIQTK-NH2)",0.3
4,"CCCC[C@H](NC(=O)[C@H](CCC(=O)O)NC(=O)[C@H](CC(=O)O)NC(=O)[C@H](CO)NC(=O)[C@H](Cc1ccccc1)NC(=O)[C@H](CO)NC(=O)CNC(=O)[C@H](CC(=O)O)NC(=O)CNC(=O)[C@@H](N)Cc1c[nH]cn1)C(=O)N[C@H](Cc1ccccc1)C(=O)N[C@H](C(=O)N[C@H](C(=O)N[C@@H](CC(C)C)C(=O)N[C@@H](CC(=O)O)C(=O)N[C@@H](Cc1ccc(O)cc1)C(=O)N[C@@H](CC(C)C)C(=O)N[C@@H](C)C(=O)N[C@@H](C)C(=O)N[C@@H](CCCNC(=N)N)C(=O)N[C@@H](CC(=O)O)C(=O)N[C@@H](Cc1ccccc1)C(=O)N[C@H](C(=O)N[C@@H](CC(N)=O)C(=O)N[C@@H](Cc1c[nH]c2ccccc12)C(=O)N[C@@H](CC(C)C)C(=O)N[C@H](C(=O)N[C@@H](CCC(N)=O)C(=O)N[C@H](C(=O)N[C@@H](CCCCN)C(N)=O)[C@@H](C)O)[C@@H](C)CC)[C@@H](C)CC)[C@@H](C)CC)[C@@H](C)O [Compound 49, [Gly2,Nle10,D-Phe11,Tyr16] hGLP-2 (1-30)-NH2] (H-HGDGSFSDE[Nle][dF]TILDYLAARDFINWLIQTK-NH2)",0.48
5,"CCCC[C@H](NC(=O)[C@H](CCC(=O)O)NC(=O)[C@H](CC(=O)O)NC(=O)[C@H](CO)NC(=O)[C@H](Cc1ccccc1)NC(=O)[C@H](CO)NC(=O)CNC(=O)[C@H](CC(=O)O)NC(=O)CNC(=O)[C@@H](N)Cc1c[nH]cn1)C(=O)N[C@H](Cc1cccs1)C(=O)N[C@H](C(=O)N[C@H](C(=O)N[C@@H](CC(C)C)C(=O)N[C@@H](CC(=O)O)C(=O)N[C@@H](Cc1ccc(O)cc1)C(=O)N[C@@H](CC(C)C)C(=O)N[C@@H](C)C(=O)N[C@@H](C)C(=O)N[C@@H](CCCNC(=N)N)C(=O)N[C@@H](CC(=O)O)C(=O)N[C@@H](Cc1ccccc1)C(=O)N[C@H](C(=O)N[C@@H](CC(N)=O)C(=O)N[C@@H](Cc1c[nH]c2ccccc12)C(=O)N[C@@H](CC(C)C)C(=O)N[C@H](C(=O)N[C@@H](CCC(N)=O)C(=O)N[C@H](C(=O)N[C@@H](CCCCN)C(N)=O)[C@@H](C)O)[C@@H](C)CC)[C@@H](C)CC)[C@@H](C)CC)[C@@H](C)O [Compound 50, [Gly2,Nle10,D-Thi11,Tyr16] hGLP-2 (1-30)-NH2] (H-HGDGSFSDE[Nle][d2Thi]TILDYLAARDFINWLIQTK-NH2)",0.52

# More lines, now with the values ahead:
row,clearance [mL/kg/min],Structure (SMILES)
1,0.37,"CCCC[C@H](NC(=O)[C@H](CCC(=O)O)NC(=O)[C@H](CC(=O)O)NC(=O)[C@H](CO)NC(=O)[C@H](Cc1ccccc1)NC(=O)[C@H](CO)NC(=O)CNC(=O)[C@H](CC(=O)O)NC(=O)CNC(=O)[C@@H](N)Cc1cnc[nH]1)C(=O)N[C@H](Cc1ccccc1)C(=O)N[C@H](C(=O)N[C@H](C(=O)N[C@@H](CC(C)C)C(=O)N[C@@H](CC(=O)O)C(=O)N[C@@H](CC(C)C)C(=O)N[C@@H](CC(C)C)C(=O)N[C@@H](C)C(=O)N[C@@H](C)C(=O)N[C@@H](CCCNC(=N)N)C(=O)N[C@@H](CC(=O)O)C(=O)N[C@@H](Cc1ccccc1)C(=O)N[C@H](C(=O)N[C@@H](CC(N)=O)C(=O)N[C@@H](Cc1c[nH]c2ccccc12)C(=O)N[C@@H](CC(C)C)C(=O)N[C@H](C(=O)N[C@@H](CCC(N)=O)C(=O)N[C@H](C(=O)N[C@@H](CCCCN)C(N)=O)[C@@H](C)O)[C@@H](C)CC)[C@@H](C)CC)[C@@H](C)CC)[C@@H](C)O [Compound 48, [Gly2,Nle10,D-Phe11,Leu16] hGLP-2 (1-30)-NH2] (H-HGDGSFSDE[Nle][dF]TILDLLAARDFINWLIQTK-NH2)"
2,0.27,"CCCC[C@H](NC(=O)[C@H](CCC(=O)O)NC(=O)[C@H](CC(=O)O)NC(=O)[C@H](CO)NC(=O)[C@H](Cc1ccccc1)NC(=O)[C@H](CO)NC(=O)CNC(=O)[C@H](CC(=O)O)NC(=O)CNC(=O)[C@@H](N)Cc1cnc[nH]1)C(=O)N[C@H](Cc1ccccc1)C(=O)N[C@H](C(=O)N[C@H](C(=O)N[C@@H](CC(C)C)C(=O)N[C@@H](CC(=O)O)C(=O)N[C@@H](CC(C)C)C(=O)N[C@@H](CC(C)C)C(=O)N[C@@H](C)C(=O)N[C@@H](C)C(=O)N[C@@H](CCCNC(=N)N)C(=O)N[C@@H](CC(=O)O)C(=O)N[C@@H](Cc1ccccc1)C(=O)N[C@H](C(=O)N[C@@H](CC(N)=O)C(=O)N[C@@H](Cc1c[nH]c2ccccc12)C(=O)N[C@@H](CC(C)C)C(=O)N[C@H](C(=O)N[C@@H](CCC(N)=O)C(=O)N[C@H](C(=O)N[C@@H](CCCCN)C(=O)N[C@H](C(=O)N[C@H](C(=O)N[C@@H](CC(=O)O)C(N)=O)[C@@H](C)O)[C@@H](C)CC)[C@@H](C)O)[C@@H](C)CC)[C@@H](C)CC)[C@@H](C)CC)[C@@H](C)O [Compound 51, [Gly2,Nle10,D-Phe11,Leu16] hGLP-2(1-33)-NH2] (H-HGDGSFSDE[Nle][dF]TILDLLAARDFINWLIQTKITD-NH2)"
3,0.49,"CCCC[C@H](NC(=O)[C@H](CCC(=O)O)NC(=O)[C@H](CC(=O)O)NC(=O)[C@H](CO)NC(=O)[C@H](Cc1ccccc1)NC(=O)[C@H](CO)NC(=O)CNC(=O)[C@H](CC(=O)O)NC(=O)CNC(=O)[C@@H](N)Cc1c[nH]cn1)C(=O)N[C@H](Cc1ccccc1)C(=O)N[C@H](C(=O)N[C@H](C(=O)N[C@@H](CC(C)C)C(=O)N[C@@H](CC(=O)O)C(=O)N[C@@H](CC(C)C)C(=O)N[C@@H](CC(C)C)C(=O)N[C@@H](C)C(=O)N[C@H](C(=O)N[C@@H](CCCNC(=N)N)C(=O)N[C@@H](CC(=O)O)C(=O)N[C@@H](Cc1ccccc1)C(=O)N[C@H](C(=O)N[C@@H](CC(N)=O)C(=O)N[C@@H](Cc1c[nH]c2ccccc12)C(=O)N[C@@H](CC(C)C)C(=O)N[C@H](C(=O)N[C@@H](CCC(N)=O)C(=O)N[C@H](C(=O)N[C@@H](CCCCN)C(N)=O)[C@@H](C)O)[C@@H](C)CC)[C@@H](C)CC)[C@@H](C)O)[C@@H](C)CC)[C@@H](C)O [Compound 52, [Gly2,Nle10,D-Phe11,Leu16,Thr19] hGLP-2(1-30)-NH2] (H-HGDGSFSDE[Nle][dF]TILDLLATRDFINWLIQTK-NH2)"
